pIC50: −log10 of the molar value.
Key:
[1] = tested on: SCC-4; experiment: MTT cell viability assay, SCC-4; format: cell-based, human
Method: The viability of SCC cell lines and primary human fibroblast cells was evaluated using the MTT assay to determine half maximal inhibitory concentration (IC50). Briefly, cells were grown in triplicate in 96-well plates (5 × 10^3 cells/well) until confluence. Then the medium was removed, fresh medium was added, and the cells were returned to the incubator in the presence of different compounds. DMSO at the same concentrations was used as a 100% cell viability control. After 48 h, cells were incubated with 5 mg/mL MTT reagent (3-(4,5-dimethyl-2-thiazolyl)-2,5-diphenyl-2-H-tetrazolium bromide) (Sigma-Aldrich Co., St. Louis, MO, USA) for 3.5 h. After that, formazan crystals were dissolved in MTT solvent solution (DMSO/methanol 1:1 v/v), and the absorbance at 560 nm was evaluated using an EPOCH microplate spectrophotometer (BioTek Instruments, Winooski, VT, USA) with the background absorbance at 670 nm subtracted. Each of the 12 compounds (7a–7l) was tested at six different concentrations, ranging from 6.25 to 200 μM in cancer and normal cell lines. Control (carboplatin) was tested at six different concentrations ranging from 25 μM to 800 μM in cancer cells and from 50 μM to 1600 μM in normal cells.
Half-maximal inhibitory concentration (IC50) values were obtained from the MTT assay of at least three independent replicates through nonlinear regression analysis using GraphPad Prism 5.0 software (Intuitive Software for Science, San Diego, CA, USA). Data were presented as means ± standard deviation (SD). A log dose–response curve (inhibitor vs response) using the least-squares method was used to determine the IC50 and SD from the data. The selectivity index (SI) was calculated as the ratio between the IC50 in normal cells and the IC50 in cancer cells, obtained by dividing the IC50 of normal cells by the IC50 of cancer cells.

[2] = tested on: B16–F10; experiment: MTT cell viability assay, B16–F10; format: cell-based, murine
[3] = tested on: caspases 3 and 7 in SCC-9 cells; experiment: Caspase-Glo 3/7 assay; format: cell-based, human; details: SCC-9, 2 × IC50, 12 and 24 h
Method: Analysis of activation of caspases 3 and 7 was assessed by using the Caspase-Glo 3/7 Assay Kit (Promega Corporation, Madison, WI, USA; G8090). The reagent provided by the kit causes cell lysis; therefore, parallelly, a cell viability assay using violet crystal was performed to normalize the detection of active caspases by viable cells. Caspases 3 and 7 procedures consisted of seeding 5 × 10^3 SCC-9 cells in a 96-well plate. […] A plate with wells without cells was used as a control. Cells and cell-free wells remained in treatment at times of interest. Then, caspase activity was detected according to the manufacturer’s instructions. Results were obtained using a TD 20/20 luminometer (Turner Designs, Sunnyvale, CA, USA). […] Then the medium was removed, and the wells were gently washed with PBS. PBS was removed, and cells were fixed with 100% alcohol that was removed after 10 min. Cells were stained with 0.05% violet crystal for 10 min. Wells were gently washed with deionized water, and […] methanol was added to each well, followed by agitation of the plate for 10 min. Absorbance of wells was read in an EPOCH (BioTek Instruments, Winooski, VT, USA) at an absorbance of 595 nm.

[4] = tested on: SCC-9 cells; experiment: Videomicroscopy by time-lapse; format: cell-based, human; details: SCC-9, 2 × IC50 (24.58 μM), up to 48 h
Method: Cells were maintained in a controlled chamber containing 5% CO2 and 37 °C. Images were captured every minute and integrated using Framelapse software (Neximo Laboratories, Uttar Pradesh, India).

Question: How did the pIC50 ([1]; Homo sapiens, SCC-4, MTT, 48 h) turn out when `O=C1C=C(OCc2cn(CCCOc3cc(=O)oc4ccccc34)nn2)C(=O)c2ccccc21` [Compound 7f, 2-((1-(3-((2-Oxo-2H-chromen-4-yl)oxy)propyl)-1H-1,2,3-triazol-4-yl)methoxy)naphthalene-1,4-dione] was run?
Answer: 5.10

Question: What about the “SI SCC-4” value ([1]; IC50 human gingival fibroblast / IC50 SCC-4) of the same compound?
Answer: 2.87

Question: And the pIC50 ([2]; Mus musculus, B16-F10, MTT, murine melanoma)?
Answer: 5.31

Question: And the “SI B16–F10” value ([2]; versus human gingival fibroblast)?
Answer: 4.61

Question: What about the “caspases 3 and 7 activity, luminescent signal versus DMSO” value [3] of the same compound?
Answer: approximately 2 fold

Question: What about the “proliferation and morphology by video microscopy” value [4] of the same compound?
Answer: pronounced inhibition of proliferation
